Measurements as given in patent US8114866B2, “Derivatives of 1-piperazine- and 1-homopiperazine-carboxylates, preparation method thereof and use of same as inhibitors of the FAAH enzyme” (Sanofi-Aventis, priority 2003, dated 2012).

Key:
[1] = target: T1, enzyme FAAH (Fatty Acid Amido Hydrolase) (Mus musculus, UniProt O08914); experiment: radioenzymatic test of FAAH inhibition (hydrolysis of anandamide [ethanolamine 1-3H], mouse brain membrane homogenates); type: biochemical; conditions: anandamide 10 μM, 15 minutes at 25° C., read-out: IC50 (concentration inhibiting 50% of the control enzymatic activity of FAAH)
T1 construct: The membrane homogenates are prepared extemporaneously by homogenizing the tissues with a Polytron machine; from tissue; host or cells: mouse brain (minus cerebellum) membrane homogenate
T1 sequence (O08914 1-579): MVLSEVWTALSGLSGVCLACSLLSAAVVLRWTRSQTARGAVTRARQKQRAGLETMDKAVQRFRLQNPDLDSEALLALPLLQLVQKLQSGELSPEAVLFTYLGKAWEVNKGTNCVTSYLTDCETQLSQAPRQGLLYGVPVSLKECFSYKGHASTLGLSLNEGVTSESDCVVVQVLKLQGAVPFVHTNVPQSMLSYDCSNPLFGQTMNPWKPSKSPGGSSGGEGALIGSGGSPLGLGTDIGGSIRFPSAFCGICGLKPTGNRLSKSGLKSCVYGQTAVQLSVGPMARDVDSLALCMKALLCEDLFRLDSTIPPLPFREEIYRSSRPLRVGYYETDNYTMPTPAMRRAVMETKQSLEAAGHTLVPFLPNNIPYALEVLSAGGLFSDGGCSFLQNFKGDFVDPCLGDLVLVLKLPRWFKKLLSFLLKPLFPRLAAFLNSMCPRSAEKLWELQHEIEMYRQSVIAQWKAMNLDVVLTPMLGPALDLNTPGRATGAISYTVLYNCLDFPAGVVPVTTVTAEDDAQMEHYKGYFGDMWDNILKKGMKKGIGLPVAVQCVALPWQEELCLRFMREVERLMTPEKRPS
Procedure: The compounds of the invention were subjected to pharmacological tests to determine their inhibitory effect on the enzyme FAAH (Fatty Acid Amido Hydrolase).
Thus, mouse brains (minus the cerebellum) are removed and stored at −80° C. The membrane homogenates are prepared extemporaneously by homogenizing the tissues with a Polytron machine in 10 mM Tris-HCl buffer (pH 8) containing 150 mM NaCl and 1 mM EDTA. The enzymatic reaction is then performed in 70 μl of buffer containing fatty-acid-free bovine serum albumin (1 mg/ml). The various test compounds at different concentrations, anandamide [ethanolamine 1-^3H] (specific activity of 15-20 Ci/mmol) diluted to 10 μM with cold anandamide, and the membrane preparation (400 μg of thawed tissue per test) are successively added. After 15 minutes at 25° C., the enzymatic reaction is quenched by adding 140 μL of chloroform/methanol (2:1). The mixture is stirred for 10 minutes and then centrifuged for 15 minutes at 3500×g. An aliquot (30 μL) of the aqueous phase containing the ethanolamine [1-^3H] is counted by liquid scintillation.

male OF1 mice = experiment: test of analgesia: abdominal stretching induced by PBQ (phenylbenzoquinone) i.p.; type: in vivo; conditions: 1 mg/kg p.o. at 2 hours, PBQ 2 mg/kg i.p.
Procedure: It is thus seen that the compounds according to the invention have inhibitory activity on the enzyme FAAH. The in vivo activity of the compounds of the invention was evaluated in a test of analgesia.
Thus, the intraperitoneal (i.p.) administration of PBQ (phenylbenzoquinone, 2 mg/kg in a 0.9% sodium chloride solution containing 5% ethanol) to male OF1 mice weighing 25 to 30 g causes abdominal stretching, on average 30 twists or contractions in the period from 5 to 15 minutes after injection. The test compounds are administered orally as a 0.5% suspension in Tween 80, 60 minutes or 120 minutes before the administration of PBQ. Under these conditions, the most powerful compounds of the invention reduce the number of stretches induced by PBQ by 35 to 70%, in a dosage range of between 1 and 30 mg/kg.

| Compound | melting point [°C] | IC50 [1] [nM] | Reduction of the number of stretches (%) (male OF1 mice) |
| --- | --- | --- | --- |
| Cc1ccc(-c2ccc(Cl)cc2)cn1 [Compound 75] | 203 to 206 |  |  |
| CNC(=O)COC(=O)N1CCN(c2ccc(-c3ccc(OC(F)(F)F)cc3)cn2)CC1 [Compound 83, 2-(methylamino)-2-oxoethyl 4-(5-{4-[(trifluoromethyl)oxy]phenyl}-2-pyridyl)-1-piperazinecarboxylate] | 188 to 190 | 12 |  |
| CNC(=O)COC(=O)N1CCN(c2ccc(-c3cccc(C(F)(F)F)c3)nc2)CC1 [Compound 85, 2-(methylamino)-2-oxoethyl 4-{6-[3-(trifluoromethyl)phenyl]-3-pyridyl}-1-piperazinecarboxylate] | 146 to 150 |  |  |
| CNC(=O)COC(=O)N1CCN(c2ccc(CC(C)C)nc2)CC1 [Compound 66, 2-(methylamino)-2-oxoethyl 4-[6-(2-methylpropyl)-3-pyridyl]-1-piperazinecarboxylate] | 87 to 89 |  |  |
| CNC(=O)COC(=O)N1CCN(c2ccc(-c3cccc(C(F)(F)F)c3)cc2)CC1 [Compound 37, 2-(methylamino)-2-oxoethyl 4-[3′-(trifluoromethyl)-4-biphenylyl]-1-piperazinecarboxylate] | 129 to 130 | 190 | −57 (a) % |
| CNC(=O)COC(=O)N1CCN(c2ccc(-c3ccc(Cl)cc3)cc2)CC1 [Compound 34] |  | 20 |  |
| CNC(=O)COC(=O)N1CCN(c2ccc(-c3cccc(C(F)(F)F)c3)cn2)CC1 [Compound 76, 2-(methylamino)-2-oxoethyl 4-{5-[3-(trifluoromethyl)phenyl]-2-pyridyl}-1-piperazinecarboxylate] | 158 to 160 | 290 | −47 (a) % |
| CNC(=O)COC(=O)N1CCN(c2ccc(-c3cccc(C(F)(F)F)c3)nn2)CC1 [Compound 87, 2-(methylamino)-2-oxoethyl 4-{6-[3-(trifluoromethyl)phenyl]-3-pyridazinyl}-1-piperazinecarboxylate] | 151 to 153 |  |  |
| CCOc1ccc(-c2ccc(N3CCN(C(=O)OCC(=O)NC)CC3)cc2)cc1 [Compound 43] |  | 44 |  |
| CNC(=O)COC(=O)N1CCCN(c2ccc(-c3ccc(OC(F)(F)F)cc3)cn2)CC1 [Compound 103, 2-(methylamino)-2-oxoethyl 4-(5-{4-[(trifluoromethyl)oxy]phenyl}-2-pyridyl)-1,4-diazepane-1-carboxylate] | 191 to 193 |  |  |
| NC(=O)COC(=O)N1CCN(c2ccc(-c3cccc(C(F)(F)F)c3)nc2)CC1 [Compound 86, 2-amino-2-oxoethyl 4-{6-[3-(trifluoromethyl)phenyl]-3-pyridyl}-1-piperazinecarboxylate] | 155 to 157 |  |  |
| CNC(=O)COC(=O)N1CCN(c2ccc(-c3ccc(C(F)(F)F)cc3)cn2)CC1 [Compound 79, 2-(methylamino)-2-oxoethyl 4-{5-[4-(trifluoromethyl)phenyl]-2-pyridyl}-1-piperazinecarboxylate] | 206 to 209 |  |  |
| CNC(=O)COC(=O)N1CCN(c2ccc(-c3ccc(OC(F)(F)F)cc3)cc2)CC1 [Compound 44, 2-(methylamino)-2-oxoethyl 4-{4′-[(trifluoromethyl)oxy]-4-biphenyl}-1-piperazinecarboxylate] | 187 to 189 | 7 | −53 (a) % |
| Cc1cc(F)cc2c1OCCC2 [Compound 15] | 189 to 190 |  |  |
| Cc1ccc(-c2ccc([N+](=O)[O-])cc2)cc1 [Compound 36] | 197 to 198 |  |  |
| Cc1ccc(-c2ccc(Cl)cc2)cn1 [Compound 98] | 204 to 206 |  |  |
| CNC(=O)COC(=O)N1CCN(c2ccc(CC(C)C)cn2)CC1 [Compound 63, 2-(methylamino)-2-oxoethyl 4-[5-(2-methylpropyl)-2-pyridyl]-1-piperazinecarboxylate] | 127 to 129 |  |  |
